{
  "source": "paper PMC3041857",
  "about": "(Journal of medicinal chemistry, 2011)",
  "data": [
    {"test_system": "MDR1-MDCK cell monolayers", "values": [
      {"smiles": "COc1ccc(-c2csc(Nc3ccc(C(F)(F)F)cn3)n2)cc1OC", "note": "[Compound 12, [4-(3,4-dimethoxyphenyl)-thiazol-2-yl]-(5-trifluoromethylpyridin-2-yl)-amine]", "Permeability (in words)": "greater permeability in the absorptive direction"},
      {"smiles": "COc1ccc(-c2csc(Nc3ccc4ccccc4n3)n2)cc1OC", "note": "[Compound 18, [4-(3,4-dimethoxyphenyl)-thiazol-2-yl]-quinolin-2-yl-amine]", "Permeability (in words)": "greater permeability in the absorptive direction"},
      {"smiles": "Cc1ccc(Nc2nc(-c3c(-c4ccccc4)noc3C)cs2)nc1", "note": "[Compound 28, [4-(5-Methyl-3-phenylisoxazol-4-yl)-thiazol-2-yl]-(5-methylpyridin-2-yl)-amine]", "Permeability (in words)": "greater permeability in the absorptive direction"}
    ]}
  ]
}
